IC50 and Ki data for ten compounds are collected here from patent US10676485B2, “Macrocyclic MCL-1 inhibitors and methods of use” (AbbVie Inc., priority 2017, dated 2020).

Where two headings read alike, the source gives them in different places. Where only a bound is given, the exact number is not on record here.

The subject of test [1] is NCI-H929 human multiple myeloma tumor cell line. In words: NCI-H929 cell viability assay (CellTiter-Glo). To be noted: NCI-H929, read-out: H929 Viability IC50 (μM), 10% FBS, 24 hours of compound treatment. It is filed as cell-based.
The target of a further test is GST-MCL-1 (Homo sapiens (Human), UniProt Q07820). As to the kind of experiment: TR-FRET MCL-1 binding assay (competition with probe F-Bak). The essentials:
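Tested both in plain buffer and with 10% human serum. Top concentration 25 μM, 11 three-fold steps, 2 h room-temperature incubation of GST-MCL-1 with Tb-labelled anti-His antibody and F-Bak probe. Time-resolved FRET: 340 nm excitation, 520/525 and 495/510 nm emission.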
A general note: TR-FRET usually uses a lanthanide donor and a delayed reading to cut background.

The test system of test [2] is AMO-1 human multiple myeloma tumor cell line. As to the kind of experiment: AMO-1 cell viability assay (CellTiter-Glo). It is filed as cell-based. To be noted: AMO1, read-out: AMO-1 Viability IC50 (μM), 10% FBS, 24 hours of compound treatment. A general note: In ATP-based viability assays light output follows the ATP content of the culture.
Setting [3] is: read-out: MCL-1 Binding Ki (nM, 10% HS), in the presence of 10% HS.
Setting [4] is: without HS, read-out: MCL-1 Binding Ki.

GST-MCL-1, sequence (Q07820 whole entry): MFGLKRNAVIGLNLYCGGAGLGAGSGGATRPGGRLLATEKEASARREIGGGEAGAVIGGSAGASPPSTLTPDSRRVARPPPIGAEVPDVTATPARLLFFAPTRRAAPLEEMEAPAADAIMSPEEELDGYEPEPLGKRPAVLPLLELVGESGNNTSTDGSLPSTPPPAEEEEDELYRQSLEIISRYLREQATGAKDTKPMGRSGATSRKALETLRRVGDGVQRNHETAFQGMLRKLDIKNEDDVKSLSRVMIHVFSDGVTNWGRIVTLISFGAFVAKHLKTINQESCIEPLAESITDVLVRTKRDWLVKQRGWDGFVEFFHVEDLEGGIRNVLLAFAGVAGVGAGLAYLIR

In general, IC50 refers to the midpoint of a concentration-inhibition curve. A word on the Ki: it is the equilibrium dissociation constant of an inhibitor or competing ligand from its target. Take `Cc1c(Cl)c2c(Cl)c(C)c1-c1c(-c3ccc(F)cc3)sc3ncnc(c13)O[C@@H](C(=O)O)Cc1cc(ccc1OCc1ccnc(-c3ccc(NC[C@@H]4COCCO4)nc3)n1)OC[C@@H](CN1CCN(C)CC1)O2` [Example 41, (7R,16R)-19,23-dichloro-10-({2-[6-({[(2R)-1,4-dioxan-2-yl]methyl}amino)pyridin-3-yl]pyrimidin-4-yl}methoxy)-1-(4-fluorophenyl)-20,22-dimethyl-16-[(4-methylpiperazin-1-yl)methyl]-7,8,15,16-tetrahydro-18,21-etheno-13,9-(metheno)-6,14,17-trioxa-2-thia-3,5-diazacyclononadeca[1,2,3-cd]indene-7-carboxylic acid]: the IC50 in test [1] was found to be 0.000595 µM; in test [2], 0.000589 µM. Besides, the Ki is 0.14 nM at GST-MCL-1 (setting [3]) and 0.009 nM on GST-MCL-1 (setting [4]).

As for `Cc1c(Cl)c2c(Cl)c(C)c1-c1c(C3CCC3)sc3ncnc(c13)O[C@@H](C(=O)O)Cc1cc(ccc1OCc1ccnc([C@H]3CC[C@H](OC[C@H]4COCCO4)CC3)n1)OC[C@@H](CN1CCN(C)CC1)O2` [Example 52, (7R,16R)-19,23-dichloro-1-cyclobutyl-10-({2-[(1R,4r)-4-{[(2R)-1,4-dioxan-2-yl]methoxy}cyclohexyl]pyrimidin-4-yl}methoxy)-20,22-dimethyl-16-[(4-methylpiperazin-1-yl)methyl]-7,8,15,16-tetrahydro-18,21-etheno-13,9-(metheno)-6,14,17-trioxa-2-thia-3,5-diazacyclononadeca[1,2,3-cd]indene-7-carboxylic acid], the IC50 stood at 0.00118 µM in test [1] and 0.000448 µM in test [2]. The Ki on GST-MCL-1 (setting [3]) is 0.72 nM; at GST-MCL-1 (setting [4]), under 0.01 nM.

As for `Cc1c(Cl)c2c(Cl)c(C)c1-c1c(C3=CCCC3)sc3ncnc(c13)O[C@@H](C(=O)O)Cc1cc(ccc1OCc1ccnc(C3=CC[C@](F)(COC[C@@H]4COCCO4)CC3)n1)OC[C@@H](CN1CCN(C)CC1)O2` [Example 35, (7R,16R)-19,23-dichloro-1-(cyclopent-1-en-1-yl)-10-({2-[(4S)-4-({[(2S)-1,4-dioxan-2-yl]methoxy}methyl)-4-fluorocyclohex-1-en-1-yl]pyrimidin-4-yl}methoxy)-20,22-dimethyl-16-[(4-methylpiperazin-1-yl)methyl]-7,8,15,16-tetrahydro-18,21-etheno-13,9-(metheno)-6,14,17-trioxa-2-thia-3,5-diazacyclononadeca[1,2,3-cd]indene-7-carboxylic acid], the IC50 is 0.00111 µM in test [1] and 0.000261 µM in test [2]. Further, the Ki amounted to 0.52 nM on GST-MCL-1 (setting [3]) and 0.027 nM at GST-MCL-1 (setting [4]).

Turning to `Cc1c(Cl)c2c(Cl)c(C)c1-c1c(-c3ccc(F)cc3)sc3ncnc(c13)O[C@@H](C(=O)O)Cc1cc(ccc1OCc1ccnc(OC[C@H]3COCCO3)n1)OC[C@@H](CN1CCN(C)CC1)O2` [Example 25, (7R,16R)-19,23-dichloro-10-[(2-{[(2R)-1,4-dioxan-2-yl]methoxy}pyrimidin-4-yl)methoxy]-1-(4-fluorophenyl)-20,22-dimethyl-16-[(4-methylpiperazin-1-yl)methyl]-7,8,15,16-tetrahydro-18,21-etheno-9,13-(metheno)-6,14,17-trioxa-2-thia-3,5-diazacyclononadeca[1,2,3-cd]indene-7-carboxylic acid], the IC50 in test [1] was found to be 0.00188 µM; in test [2] it was 0.000629 µM. The values for the Ki on GST-MCL-1 (setting [3]) and on GST-MCL-1 (setting [4]) were 0.19 nM and 0.003 nM, respectively.

Consider `Cc1c(Cl)c2c(Cl)c(C)c1-c1c(-c3ccc(F)cc3)sc3ncnc(c13)O[C@@H](C(=O)O)Cc1cc(ccc1OCc1ccnc([C@H]3CC[C@H](OCC4COCO4)CC3)n1)OC[C@@H](CN1CCN(C)CC1)O2` (stereo partly drawn) [Example 14, (7R,16R)-19,23-dichloro-10-[(2-{(1r,4r)-4-[(1,3-dioxolan-4-yl)methoxy]cyclohexyl}pyrimidin-4-yl)methoxy]-1-(4-fluorophenyl)-20,22-dimethyl-16-[(4-methylpiperazin-1-yl)methyl]-7,8,15,16-tetrahydro-18,21-etheno-13,9-(metheno)-6,14,17-trioxa-2-thia-3,5-diazacyclononadeca[1,2,3-cd]indene-7-carboxylic acid], for which the IC50 was found to be 0.000236 µM in test [1] and 0.000114 µM in test [2]. Besides, the Ki came out at 0.09 nM on GST-MCL-1 (setting [3]) and 0.006 nM at GST-MCL-1 (setting [4]).

In the case of `Cc1c(Cl)c2c(Cl)c(C)c1-c1c(-c3ccc(F)cc3)sc3ncnc(c13)O[C@@H](C(=O)O)Cc1cc(ccc1OCc1ccnc(-c3cccc(OC[C@@H]4COCCO4)c3)n1)OC[C@@H](CN1CCN(C)CC1)O2` [Example 22, (7R,16R)-19,23-dichloro-10-{[2-(3-{[(2S)-1,4-dioxan-2-yl]methoxy}phenyl)pyrimidin-4-yl]methoxy}-1-(4-fluorophenyl)-20,22-dimethyl-16-[(4-methylpiperazin-1-yl)methyl]-7,8,15,16-tetrahydro-18,21-etheno-13,9-(metheno)-6,14,17-trioxa-2-thia-3,5-diazacyclononadeca[1,2,3-cd]indene-7-carboxylic acid], the values for the 50% inhibitory concentration (IC50) in test [1] and in test [2] were 0.000333 µM and 0.000142 µM, respectively. Also, the figures for the inhibition constant (Ki) at GST-MCL-1 (setting [3]) and on GST-MCL-1 (setting [4]) were 0.89 nM and 0.016 nM, respectively.

For `Cc1c(Cl)c2c(Cl)c(C)c1-c1c(-c3ccc(F)cc3)sc3ncnc(c13)O[C@@H](C(=O)O)Cc1cc(ccc1OCc1ccnc([C@H]3CC[C@H](OC[C@H]4COCCO4)CC3)n1)OC[C@@H](CN1CCN(C)CC1)O2` [Example 9, (7R,16R)-19,23-dichloro-10-({2-[(1R,4r)-4-{[(2R)-1,4-dioxan-2-yl]methoxy}cyclohexyl]pyrimidin-4-yl}methoxy)-1-(4-fluorophenyl)-20,22-dimethyl-16-[(4-methylpiperazin-1-yl)methyl]-7,8,15,16-tetrahydro-18,21-etheno-13,9-(metheno)-6,14,17-trioxa-2-thia-3,5-diazacyclononadeca[1,2,3-cd]indene-7-carboxylic acid], the IC50 in test [1] turned out to be 0.000245 µM; in test [2], 0.000165 µM. For the same compound, the Ki came out at 0.1 nM at GST-MCL-1 (setting [3]) and 0.005 nM on GST-MCL-1 (setting [4]).

`Cc1c(Cl)c2c(Cl)c(C)c1-c1c(-c3ccc(F)cc3)sc3ncnc(c13)O[C@@H](C(=O)O)Cc1cc(ccc1OCc1ccnc(C3=CC[C@@](F)(COC[C@H]4COCCO4)CC3)n1)OC[C@@H](CN1CCN(C)CC1)O2` [Example 43, (7R,16R)-19,23-dichloro-10-({2-[(4R)-4-({[(2R)-1,4-dioxan-2-yl]methoxy}methyl)-4-fluorocyclohex-1-en-1-yl]pyrimidin-4-yl}methoxy)-1-(4-fluorophenyl)-20,22-dimethyl-16-[(4-methylpiperazin-1-yl)methyl]-7,8,15,16-tetrahydro-18,21-etheno-13,9-(metheno)-6,14,17-trioxa-2-thia-3,5-diazacyclononadeca[1,2,3-cd]indene-7-carboxylic acid]: the IC50 in test [1] worked out at 0.000365 µM; in test [2] it was 0.000346 µM. Besides, the Ki worked out at 0.18 nM at GST-MCL-1 (setting [3]) and 0.02 nM at GST-MCL-1 (setting [4]).

As to `Cc1c(Cl)c2c(Cl)c(C)c1-c1c(-c3ccc(F)cc3)sc3ncnc(c13)O[C@@H](C(=O)O)Cc1cc(ccc1OCc1ccnc([C@H]3CC[C@H](OC[C@@H]4COCCO4)CC3)n1)OC[C@@H](CN1CCN(C)CC1)O2` [Example 44, (7R,16R)-19,23-dichloro-10-({2-[(1S,4r)-4-{[(2S)-1,4-dioxan-2-yl]methoxy}cyclohexyl]pyrimidin-4-yl}methoxy)-1-(4-fluorophenyl)-20,22-dimethyl-16-[(4-methylpiperazin-1-yl)methyl]-7,8,15,16-tetrahydro-18,21-etheno-13,9-(metheno)-6,14,17-trioxa-2-thia-3,5-diazacyclononadeca[1,2,3-cd]indene-7-carboxylic acid], the IC50 was found to be 0.000286 µM in test [1] and 0.000268 µM in test [2]. For the same compound, the figures for the Ki on GST-MCL-1 (setting [3]) and at GST-MCL-1 (setting [4]) were 0.16 nM and 0.02 nM, respectively.

With `Cc1c(Cl)c2c(Cl)c(C)c1-c1c(C3CCCCC3)sc3ncnc(c13)O[C@@H](C(=O)O)Cc1cc(ccc1OCc1ccnc(-c3ccc(OC[C@@H]4COCCO4)cc3)n1)OC[C@@H](CN1CCN(C)CC1)O2` [Example 17, (7R,16R)-19,23-dichloro-1-cyclohexyl-10-{[2-(4-{[(2S)-1,4-dioxan-2-yl]methoxy}phenyl)pyrimidin-4-yl]methoxy}-20,22-dimethyl-16-[(4-methylpiperazin-1-yl)methyl]-7,8,15,16-tetrahydro-18,21-etheno-9,13-(metheno)-6,14,17-trioxa-2-thia-3,5-diazacyclononadeca[1,2,3-cd]indene-7-carboxylic acid], the IC50 in test [1] worked out at 0.00565 µM; in test [2], 0.001 µM. The Ki on GST-MCL-1 (setting [3]) was found to be 4.11 nM; on GST-MCL-1 (setting [4]), 0.09 nM.
